Laboratory results reported in US20090036448A1, “PYRIMIDINE DERIVATIVES AND METHODS OF TREATMENT RELATED TO THE USE THEREOF” (TAISHO PHARMECUTICAL CO., LTD., priority 2004, published 2009).

Target: MCH receptor (Homo sapiens, UniProt Q99705)
Assay: Receptor binding assay with Radiolabelled MCH Ligand
Set-up: expressed in transfected cells; host or cells: 293 cells (human kidney, ATCC), transient transfection; crude membranes
Conditions: class by percent of control at 10^-7 M or IC50
Source text: In addition to the methods described herein, another means for evaluating a test compound is by determining binding affinities to the MCH receptor. This type of assay generally requires a radiolabelled ligand to the MCH receptor. Absent the use of known ligands for the MCH receptor and radiolabels thereof, compounds of Formula (I) can be labelled with a radioisotope and used in an assay for evaluating the affinity of a test compound to the MCH receptor.
A radiolabelled MCH compound of Formula (I) can be used in a screening assay to identify/evaluate compounds. In general terms, a newly synthesized or identified compound (i.e., test compound) can be evaluated for its ability to reduce binding of the “radiolabelled compound of Formula (I)” to the MCH receptor. Accordingly, the ability to compete with the “radio-labelled compound of Formula (I)” or Radiolabelled MCH Ligand for the binding to the MCH receptor directly correlates to its binding affinity of the test compound to the MCH receptor.
293 cells (human kidney, ATCC), transiently transfected with 10 μg human MCH receptor and 60 μl Lipofectamine (per 15-cm dish), are grown in the dish for 24 hours (75% confluency) with a media change and removed with 10 mL/dish of Hepes-EDTA buffer (20 mM Hepes+10 mM EDTA, pH 7.4). The cells are then centrifuged in a Beckman Coulter centrifuge for 20 minutes, 17,000 rpm (JA-25.50 rotor). Subsequently, the pellet is resuspended in 20 mM Hepes+1 mM EDTA, pH 7.4 and homogenized with a 50-mL Dounce homogenizer and again centrifuged. After removing the supernatant, the pellets can be stored at −80° C., until used in binding assay. When used in the assay, membranes are thawed on ice for 20 minutes and then 10 mL of incubation buffer (20 mM Hepes, 1 mM MgCl2, 100 mM NaCl, pH 7.4) added. The membranes are then vortexed to resuspend the crude membrane pellet and homogenized with a Brinkmann PT-3100 Polytron homogenizer for 15 seconds at setting 6. The concentration of membrane protein is determined using the BRL Bradford protein assay.
For total binding, a total volume of 50 ul of appropriately diluted membranes (diluted in assay buffer containing 50 mM Tris HCl (pH 7.4), 1 mM MgCl2, and 1 mM EDTA; 5-50 ug protein) is added to 96-well polyproylene microtiter plates followed by addition of 100 μl of assay buffer and 50 μl of Radiolabelled MCH Ligand. For nonspecific binding, 50 μl of assay buffer is added instead of 100 μl and an additional 50 μl of 10 uM cold MCH is added before 50 μl of Radiolabelled MCH Ligand is added. Plates are then incubated at room temperature for 60-120 minutes. The binding reaction is terminated by filtering assay plates through a Microplate Devices GF/C Unifilter filtration plate with a Brandell 96-well plate harvester followed by washing with cold 50 mM Tris HCl, pH 7.4 containing 0.9% NaCl. Then, the bottom of the filtration plate are sealed, 50 ul of Optiphase Supermix is added to each well, the top of the plates are sealed, and plates are counted in a Trilux MicroBeta scintillation counter. For compound competition studies, instead of adding 100 μl of assay buffer, 100 μl of appropriately diluted test compound is added to appropriate wells followed by addition of 50 μl of Radiolabelled MCH Ligand.
The test compounds are initially assayed at 1 and 0.1 μM and then at a range of concentrations chosen such that the middle dose would cause about 50% inhibition of a Radiolabelled MCH Ligand binding (i.e., IC50). Specific binding in the absence of test compound (BO) is the difference of total binding (BT) minus non-specific binding (NSB) and similarly specific binding (in the presence of test compound) (B) is the difference of displacement binding (BD) minus non-specific binding (NSB). IC50 is determined from an inhibition response curve, logit-log plot of % B/BO vs. concentration of test compound.
Ki is calculated by the Cheng and Prustoff transformation: […]

Sequence of MCH receptor (Q99705 whole entry): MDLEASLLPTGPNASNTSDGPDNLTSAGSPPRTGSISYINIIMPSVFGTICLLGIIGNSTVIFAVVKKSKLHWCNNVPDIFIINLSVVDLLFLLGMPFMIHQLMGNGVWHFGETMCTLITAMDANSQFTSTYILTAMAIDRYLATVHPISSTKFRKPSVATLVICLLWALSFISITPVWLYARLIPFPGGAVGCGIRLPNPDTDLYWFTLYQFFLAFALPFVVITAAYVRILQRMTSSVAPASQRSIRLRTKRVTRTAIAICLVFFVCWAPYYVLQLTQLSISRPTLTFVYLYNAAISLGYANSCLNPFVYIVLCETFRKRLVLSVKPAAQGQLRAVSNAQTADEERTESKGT

| Structure (SMILES) | class |
| --- | --- |
| Cc1nc(N[C@H]2CC[C@@H](NC(=O)c3cnn(-c4ccccc4)c3C(F)(F)F)CC2)cc(N(C)C)n1 [compound 238] | 3 (Class 3: The value of percent of control at 10^−7 M was more than 60% or the value of IC50 was more than 200 nM.) |
| Cc1nc(N[C@H]2CC[C@@H](NC(=O)COc3ccccc3[N+](=O)[O-])CC2)cc(N(C)C)n1 [compound 239] | 3 (Class 3: The value of percent of control at 10^−7 M was more than 60% or the value of IC50 was more than 200 nM.) |
| Cc1nc(N[C@H]2CC[C@@H](NC(=O)c3cnc4ccccc4n3)CC2)cc(N(C)C)n1 [compound 240] | 3 (Class 3: The value of percent of control at 10^−7 M was more than 60% or the value of IC50 was more than 200 nM.) |
| Cc1nc(N[C@H]2CC[C@@H](NC(=O)c3cccc(C(F)(F)F)c3)CC2)cc(N(C)C)n1 [compound 241, N-(cis-4-{[6-(dimethylamino)-2-methylpyrimidin-4-yl]amino}cyclohexyl)-3-(trifluoromethyl)benzamide] | 3 (Class 3: The value of percent of control at 10^−7 M was more than 60% or the value of IC50 was more than 200 nM.) |
| Cc1ccc(C(=O)N[C@H]2CC[C@@H](Nc3cc(N(C)C)nc(C)n3)CC2)cc1 [compound 242] | 3 (Class 3: The value of percent of control at 10^−7 M was more than 60% or the value of IC50 was more than 200 nM.) |
| Cc1nc(N[C@H]2CC[C@@H](NC(=O)c3cccs3)CC2)cc(N(C)C)n1 [compound 243] | 3 (Class 3: The value of percent of control at 10^−7 M was more than 60% or the value of IC50 was more than 200 nM.) |
| Cc1nc(N[C@H]2CC[C@@H](NC(=O)COc3c(F)c(F)c(F)c(F)c3F)CC2)cc(N(C)C)n1 [compound 244] | 3 (Class 3: The value of percent of control at 10^−7 M was more than 60% or the value of IC50 was more than 200 nM.) |
| COc1ccc(CC(=O)N[C@H]2CC[C@@H](Nc3cc(N(C)C)nc(C)n3)CC2)cc1OC [compound 245] | 3 (Class 3: The value of percent of control at 10^−7 M was more than 60% or the value of IC50 was more than 200 nM.) |
| Cc1nc(N[C@H]2CC[C@@H](NC(=O)CSc3ccccc3)CC2)cc(N(C)C)n1 [compound 246] | 3 (Class 3: The value of percent of control at 10^−7 M was more than 60% or the value of IC50 was more than 200 nM.) |
| Cc1nc(N[C@H]2CC[C@@H](NC(=O)c3cccc4c3-c3ccccc3C4=O)CC2)cc(N(C)C)n1 [compound 247] | 3 (Class 3: The value of percent of control at 10^−7 M was more than 60% or the value of IC50 was more than 200 nM.) |
| Cc1nc(N[C@H]2CC[C@@H](NC(=O)c3ccc(OC(F)(F)F)cc3)CC2)cc(N(C)C)n1 [compound 248] | 3 (Class 3: The value of percent of control at 10^−7 M was more than 60% or the value of IC50 was more than 200 nM.) |
| Cc1nc(N[C@H]2CC[C@@H](NC(=O)c3ccc(F)cc3C(F)(F)F)CC2)cc(N(C)C)n1 [compound 249] | 3 (Class 3: The value of percent of control at 10^−7 M was more than 60% or the value of IC50 was more than 200 nM.) |
| Cc1nc(N[C@H]2CC[C@@H](NC(=O)Cc3ccc(F)cc3)CC2)cc(N(C)C)n1 [compound 250] | 3 (Class 3: The value of percent of control at 10^−7 M was more than 60% or the value of IC50 was more than 200 nM.) |
| CCCCCCCOc1ccc(C(=O)N[C@H]2CC[C@@H](Nc3cc(N(C)C)nc(C)n3)CC2)cc1 [compound 251] | 3 (Class 3: The value of percent of control at 10^−7 M was more than 60% or the value of IC50 was more than 200 nM.) |
| CCCCCc1ccc(C(=O)N[C@H]2CC[C@@H](Nc3cc(N(C)C)nc(C)n3)CC2)cc1 [compound 252] | 3 (Class 3: The value of percent of control at 10^−7 M was more than 60% or the value of IC50 was more than 200 nM.) |
| Cc1nc(N[C@H]2CC[C@@H](NC(=O)C3CCCC3)CC2)cc(N(C)C)n1 [compound 253, N-(cis-4-{[6-(dimethylamino)-2-methylpyrimidin-4-yl]amino}cyclohexyl)cyclopentanecarboxamide] | 3 (Class 3: The value of percent of control at 10^−7 M was more than 60% or the value of IC50 was more than 200 nM.) |
| CCCCCCCCCc1ccc(C(=O)N[C@H]2CC[C@@H](Nc3cc(N(C)C)nc(C)n3)CC2)cc1 [compound 254] | 3 (Class 3: The value of percent of control at 10^−7 M was more than 60% or the value of IC50 was more than 200 nM.) |
| Cc1nc(N[C@H]2CC[C@@H](NC(=O)COc3ccc(C(C)(C)C)cc3)CC2)cc(N(C)C)n1 [compound 255] | 3 (Class 3: The value of percent of control at 10^−7 M was more than 60% or the value of IC50 was more than 200 nM.) |
| Cc1nc(N[C@H]2CC[C@@H](NC(=O)c3ccc(F)c(Cl)c3)CC2)cc(N(C)C)n1 [compound 256, 3-chloro-N-(cis-4-{[6-(dimethylamino)-2-methylpyrimidin-4-yl]amino}cyclohexyl)-4-fluorobenzamide] | 1 (Class 1: The value of percent of control at 10^−7 M was less than 40% or the value of IC50 was less than 50 nM.) |
| Cc1nc(N[C@H]2CC[C@@H](NC(=O)CC3CCCC3)CC2)cc(N(C)C)n1 [compound 257] | 3 (Class 3: The value of percent of control at 10^−7 M was more than 60% or the value of IC50 was more than 200 nM.) |
| Cc1nc(N[C@H]2CC[C@@H](NC(=O)CCc3ccccc3)CC2)cc(N(C)C)n1 [compound 258] | 3 (Class 3: The value of percent of control at 10^−7 M was more than 60% or the value of IC50 was more than 200 nM.) |
| Cc1nc(N[C@H]2CC[C@@H](NC(=O)c3ccc(C#N)cc3)CC2)cc(N(C)C)n1 [compound 259] | 3 (Class 3: The value of percent of control at 10^−7 M was more than 60% or the value of IC50 was more than 200 nM.) |
| Cc1nc(NC2CCC(NC(=O)C(Cc3ccccc3)NS(=O)(=O)c3cccc4ccccc34)CC2)cc(N(C)C)n1 (centres unmarked) [compound 260] | 3 (Class 3: The value of percent of control at 10^−7 M was more than 60% or the value of IC50 was more than 200 nM.) |
| Cc1nc(N[C@H]2CC[C@@H](NC(=O)c3ccc(SC(F)(F)F)cc3)CC2)cc(N(C)C)n1 [compound 261] | 3 (Class 3: The value of percent of control at 10^−7 M was more than 60% or the value of IC50 was more than 200 nM.) |
| Cc1nc(N[C@H]2CC[C@@H](NC(=O)/C=C/c3cccc(C(F)(F)F)c3)CC2)cc(N(C)C)n1 [compound 262] | 3 (Class 3: The value of percent of control at 10^−7 M was more than 60% or the value of IC50 was more than 200 nM.) |
| Cc1nc(N[C@H]2CC[C@@H](NC(=O)/C=C/c3ccc([N+](=O)[O-])cc3)CC2)cc(N(C)C)n1 [compound 263] | 3 (Class 3: The value of percent of control at 10^−7 M was more than 60% or the value of IC50 was more than 200 nM.) |
| Cc1nc(N[C@H]2CC[C@@H](NC(=O)Cc3ccccc3Br)CC2)cc(N(C)C)n1 [compound 264] | 3 (Class 3: The value of percent of control at 10^−7 M was more than 60% or the value of IC50 was more than 200 nM.) |
| Cc1nc(N[C@H]2CC[C@@H](NC(=O)/C=C/c3ccccc3Cl)CC2)cc(N(C)C)n1 [compound 265] | 3 (Class 3: The value of percent of control at 10^−7 M was more than 60% or the value of IC50 was more than 200 nM.) |
| Cc1nc(N[C@H]2CC[C@@H](NC(=O)c3cccnc3Sc3ccccc3)CC2)cc(N(C)C)n1 [compound 266] | 3 (Class 3: The value of percent of control at 10^−7 M was more than 60% or the value of IC50 was more than 200 nM.) |
